Source: paper PMC11944514, “Dengue Virus Inhibitors as Potential Broad-Spectrum Flavivirus Inhibitors” (Pharmaceuticals, 2025)
Read-outs that look alike come from different tables or passages of the source.

Key:
KUNV = conditions: cited from earlier work
Vero E6 [1] = conditions: cited from earlier work
ZIKV = test system: ZIKV; parameters: method as in PMID 29642580; conditions: reference inhibitor compound; cited from earlier work
TBEV = conditions: cited from earlier work
[2] = xCELLigence real-time cytotoxicity assay (RTCA), CC50; type: cell-based; conditions: African green monkey, Vero E6 cells, 24 h of exposure
Method: As compounds C1, C2, and C3 were relatively toxic (Figure 2A), we determined the selectivity index (SI) of the identified potential broad-spectrum flavivirus inhibitors. As the WST-1 assay tends to underestimate the toxic effect and is unable to detect cytostatic effects, the CC50 of the perspective compounds was measured using a more sensitive xCELLigence real-time cytotoxicity assay (RTCA). […] The full xCELLigence RTCA data are provided in the Supporting Information section (Figures S2 and S3). Thereafter, for each compound, the SI was calculated as a ratio of the CC50 of a compound against its EC50 [36].
Vero E6 cells were seeded on a 16-well E-plate (ACEA Biosciences, Inc., San Diego, CA, USA ) at a density of 5 × 10^3 cells/well and allowed to adhere overnight. On the next day, the studied compounds were added at the final concentrations ranging from 0.078 μM to 5 μM with a two-fold dilution step for compounds C1, C2, and C3, and at the final concentrations ranging from 1.56 μM to 50 μM with a two-fold dilution step for compounds C5 and C6; 0.01% DMSO was used as a solvent control. The cells were incubated for 5 days, and the signals between the electrodes (impedance) were recorded using an RTCA xCELLigence machine (Agilent Technologies, Inc., Santa Clara, CA, USA). […] The CC50 values were calculated using GraphPad Prism 10.0 for Windows, GraphPad Software, v. 10.4.1, Boston, MA, USA, www.graphpad.com (accessed on 16 February 2025).

ZIKV-Nanoluc = assay: microbe, parasite or virus in culture; type: cell-based; conditions: for EC50: Zika virus, Vero C1008, read-out: ZIKV EC50, μM
DENV2-Nanoluc = assay: microbe, parasite or virus in culture; type: cell-based; conditions: for EC50: Dengue virus
KUNV-Nanoluc = assay: organism not typed; type: cell-based; conditions: for EC50: Vero C1008, read-out: KUNV EC50, μM
TBEV-Nanoluc = assay: microbe, parasite or virus in culture; type: cell-based
[3] = test system: New Guinea C strain of DENV2; conditions: human Huh7 cells infected for 48 h, Renilla luciferase assay; read-out: EC50 against the New Guinea C strain of DENV2; cited from earlier work
DENV2 [4] = test system: DENV2; parameters: method as in PMID 20837762; conditions: reference inhibitor compound; cited from earlier work
Vero E6 [5] = test system: Vero E6; parameters: method as in PMID 20837762; conditions: reference inhibitor compound; cited from earlier work
KUNV-Nanoluc replicon = type: cell-based
TBEV-Nanoluc replicon = type: cell-based
ZIKV-Nanoluc replicon = type: cell-based
DENV2-Nanoluc replicon = type: cell-based
Vero E6 cells = assay: WST-1 cell viability assay, Vero E6; type: cell-based, African green monkey; conditions: Vero E6, 48 h of exposure
Method: The cytotoxic effect of all studied compounds was assessed using the WST-1 assay after 48 h of exposure. […] This observation can be explained by the fact that the compound C8 is resazurin, phenoxazine dye, also known as Alamar Blue, which is subject to irreversible metabolic reduction to the resorufin by live mammalian cells. Thus, the cytotoxic effect of this compound cannot be assessed by the WST-1 assay correctly. Therefore, the C8 cytotoxicity was further assessed using the resazurin cell viability assay. This assay allowed us to avoid the interference between the tested compound and dye and obtain more reliable results for colored compounds.
Vero E6 or U2OS cells were seeded on the 96-well plate at a density of 1 × 10^4 cells/well and were allowed to adhere overnight. Next day, the cells were treated with the studied compounds at concentrations ranging from 1 to 100 μM with a ten-fold dilution step. As a solvent control, 0.01% DMSO (Sigma, St. Louis, MO, USA) was used. After 48 h of exposure, 10 μL of WST-1 (10 mg/mL) cell proliferation reagent (Roche, Cat. No. 11644807001) was added to each well, and plates were incubated at 37 °C, 5% CO2 for 2 h. The optical density was then measured at 450 nm using an Epoch Microplate Spectrophotometer (BioTek Instruments, Inc., Winooski, VT, USA). Four independent experiments were carried out in triplicates.

DENV2 [6] = test system: DENV2; parameters: method as in PMID 25878766; conditions: BHK-21 cells; read-out: EC50, inhibition of DENV2 infection; cited from earlier work

For CCOC(=O)c1c(CSc2ccccc2)n(C)c2cc(Br)c(O)c(CN(C)C)c12 [Arbidol], the EC50 (KUNV) is given as 18.8 µM, the CC50 (Vero E6 [1]) is given as 89.7 µM and the EC50 (ZIKV) is given as 12.1 µM. For the same molecule, the EC50 (TBEV) was 18.7 µM.
In the case of CC(C)(C)Oc1cccc2nc(N)nc(N)c12 [Compound C2, 5-(tert-butoxy)quinazoline-2,4-diamine], the CC50 at 24 h [2] is reported as 0.31 µM, the “antiviral effect against ZIKV-Nanoluc (initial screening)” value (ZIKV-Nanoluc) is reported as “completely inhibited the ZIKV-Nanoluc replication at the maximum tested concentration” and the “concentration at which a statistically significant antiviral effect appeared (ZIKV-Nanoluc)” value (ZIKV-Nanoluc) is reported as 0.2 µM. The EC50 (ZIKV-Nanoluc) was 0.48 µM, the “antiviral effect against DENV2-Nanoluc (initial screening)” value (DENV2-Nanoluc) was “apparent dose-dependent antiviral effects” and the EC50 (DENV2-Nanoluc; DENV2, Vero C1008, read-out: DENV2 EC50, μM) was about 0.13 µM. The EC50 (DENV2-Nanoluc; DENV2, Vero C1008, read-out: EC50 against DENV2) was about 0.13 µM, the “antiviral effect against KUNV-Nanoluc (initial screening)” value (KUNV-Nanoluc) was “decreased the KUNV-Nanoluc activity only at the maximum tested concentrations” and the EC50 (KUNV-Nanoluc) was 0.26 µM. For the same molecule, the “antiviral effect against TBEV-Nanoluc (initial screening)” value (TBEV-Nanoluc) was “clear dose-dependent antiviral effect” and the EC50 [3] was 0.0028 µM.
For COc1cccc2c1C(=O)c1c(O)c3c(c(O)c1C2=O)C[C@@](O)(C(=O)CO)C[C@@H]3O[C@H]1C[C@H](N)[C@H](O)[C@H](C)O1 [Doxorubicin], the EC50 (DENV2 [4]) is given as 1.2 µM and the CC50 (Vero E6 [5]) is given as 24 µM.
With CN1C(=O)C2(CC(=O)Nc3c2cnn3Cc2ccc(Cl)cc2)c2cc(Cl)ccc21 (stereo not shown) [Compound C6, 5-chloro-1′-[(4-chlorophenyl)methyl]-1-methyl-1,1′,2,5′,6′,7′-hexahydrospiro[indole-3,4′-pyrazolo[3,4-b]pyridine]-2,6′-dione] the CC50 at 24 h [2] was over 50 µM, the “antiviral effect against KUNV-Nanoluc replicon” value (KUNV-Nanoluc replicon) was “most active against all the studied viral replicons” and the “antiviral effect against ZIKV-Nanoluc (initial screening)” value (ZIKV-Nanoluc) was “partially inhibited the virus activity at this concentration”. For the same molecule, the EC50 (ZIKV-Nanoluc) was 23.9 µM, the “antiviral effect against TBEV-Nanoluc replicon” value (TBEV-Nanoluc replicon) was “most active against all the studied viral replicons” and the “antiviral effect against ZIKV-Nanoluc replicon” value (ZIKV-Nanoluc replicon) was “most active against all the studied viral replicons”. The “antiviral effect against DENV2-Nanoluc replicon” value (DENV2-Nanoluc replicon) was “most active against all the studied viral replicons”, the “cytotoxic effect (WST-1 assay)” value (Vero E6 cells) was “no cytotoxic effect at the maximal tested concentration” and the “antiviral effect against DENV2-Nanoluc (initial screening)” value (DENV2-Nanoluc) was “apparent dose-dependent antiviral effects”. The “antiviral effect against KUNV-Nanoluc (initial screening)” value (KUNV-Nanoluc) was “decreased the KUNV-Nanoluc activity only at the maximum tested concentrations”, the EC50 (KUNV-Nanoluc) was 20.6 µM and the EC50 (DENV2 [6]) was 0.006 µM. The “antiviral effect against TBEV-Nanoluc (initial screening)” value (TBEV-Nanoluc) was “clear dose-dependent antiviral effect” and the EC50 (TBEV-Nanoluc; read-out: TBEV EC50) was 14 µM.
